From patent US7745422B2, “Bisphosphonate compounds and methods for bone resorption diseases, cancer, bone pain, immune disorders, and infectious diseases” (The Board of Trustees of the University of Illinois, priority 2004, dated 2010)
Like-named read-outs stand apart in the source and are kept apart here.

Columns and labels:
Dictyostelium discoideum = experiment: D. discoideum cell growth inhibition; format: cell-based
From the text: (§1) We then investigated the activity of each compound in inhibiting the FPPS from L. major, in Dictyostelium discoideum growth inhibition and in γδ T cell activation. We used the FPPS from L. major since this enzyme is the putative bisphosphonate target in several trypanosomatid species.

human FPPS = biological target: T1, human FPPS (Homo sapiens, UniProt P14324); experiment: human FPPS assay; format: biochemical
T1 sequence (P14324 1-419): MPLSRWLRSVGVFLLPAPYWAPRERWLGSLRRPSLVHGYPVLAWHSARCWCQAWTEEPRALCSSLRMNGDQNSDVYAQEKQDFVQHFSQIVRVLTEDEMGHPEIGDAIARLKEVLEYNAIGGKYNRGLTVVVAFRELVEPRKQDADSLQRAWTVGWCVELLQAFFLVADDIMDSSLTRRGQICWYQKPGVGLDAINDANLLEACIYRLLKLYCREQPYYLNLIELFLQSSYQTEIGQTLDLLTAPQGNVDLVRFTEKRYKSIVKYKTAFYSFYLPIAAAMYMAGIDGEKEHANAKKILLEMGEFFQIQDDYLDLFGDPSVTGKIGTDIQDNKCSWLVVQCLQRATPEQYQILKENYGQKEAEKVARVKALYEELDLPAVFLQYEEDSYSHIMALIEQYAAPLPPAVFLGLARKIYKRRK

fetal mouse metatarsals = experiment: bone resorption assay: 45Ca2+ release from 17-day old fetal mouse metatarsals; format: cell-based; details: for IC50: Table 4
Experimental: Compounds are tested in a bone resorption assay: ^45Ca^2+ release from 17-day old fetal mouse metatarsals (ref. 37).

Vγ2Vδ2 T cells [1] = experiment: gammadelta T cell stimulation (TNF-α release assay); format: cell-based, human
From the text: as §1

[2] = tested on: human nasopharyngeal carcinoma cells; experiment: Toxicity testing in human nasopharyngeal carcinoma cells; format: cell-based
Experimental: We have obtained data for selected bisphosphonate compounds in the contexts of D. discoideum assays, human FPPS assays, gammadelta T cell stimulation assays, and bone resorption assays. […] Some toxicity testing was also performed. See Table 4 (in some instances, the same data depicted elsewhere herein, e.g., in Table 1, may be presented again to facilitate comparative analysis).

L. major FPPS = biological target: T2, L. major FPPS (Leishmania major, UniProt Q4QBL1); experiment: biochemical; format: biochemical
T2 sequence (Q4QBL1 1-362): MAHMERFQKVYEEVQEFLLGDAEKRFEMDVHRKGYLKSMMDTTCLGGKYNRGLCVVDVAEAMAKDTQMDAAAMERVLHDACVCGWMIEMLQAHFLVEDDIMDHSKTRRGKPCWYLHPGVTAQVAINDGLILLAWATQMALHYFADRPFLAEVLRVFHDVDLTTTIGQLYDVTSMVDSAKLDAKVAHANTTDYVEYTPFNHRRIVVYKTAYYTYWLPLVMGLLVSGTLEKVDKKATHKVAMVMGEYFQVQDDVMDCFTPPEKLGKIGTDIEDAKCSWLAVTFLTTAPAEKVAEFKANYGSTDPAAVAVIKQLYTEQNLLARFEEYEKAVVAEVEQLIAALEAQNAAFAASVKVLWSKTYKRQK
From the text: as §1

Vγ2Vδ2 T cells [3] = details: TNF-α release, footnote b: data from Ref. 30; read-out: gammadelta T cell stimulation, EC50; cited from earlier work
pyrophosphatase enzymes = experiment: Pyrophosphatase inhibition; format: biochemical
From the text: We explored the hypothesis of whether analogs of pyrophosphate could block pyrophosphatase enzymes and/or inhibit cellular growth or function. We used certain bisphosphonate compounds that are currently applied in bone resorption therapy.

parasite cell growth = experiment: Parasite cell growth inhibition; format: cell-based
From the text: We explored the hypothesis of whether analogs of pyrophosphate could block pyrophosphatase enzymes and/or inhibit cellular growth or function. We used certain bisphosphonate compounds that are currently applied in bone resorption therapy. The compounds included pamidronate (Aredia®, Novartis), alendronate (Fosamax®, Merck), and risedronate (Actonel®, Procter & Gamble). […] Without wishing to be bound by a particular theory, the compounds appeared to act as inhibitors of isoprenoid biosynthesis (FIG. 6).

[4] = Table 4, read-out: (1) D. discoideum IC50
[5] = Table 4, read-out: (2) human FPPS IC50
[6] = cell growth inhibition, Table 1 and text, read-out: D. discoideum IC50
[7] = TNF-α release, Table 1 and text, read-out: gammadelta T cell stimulation, EC50
[8] = Table 3, additional testing, read-out: gammadelta T cell stimulation EC50
[9] = Table 1 and text, read-out: L. major FPPS Ki
[10] = Table 4, read-out: (3) gammadelta T cell stimulation EC50
[11] = Dictyostelium discoideum, read-out: (1) D. discoideum IC50
[12] = Homo sapiens, T-cell, read-out: (3) gammadelta T cell stimulation EC50
[13] = Homo sapiens, T-cell, read-out: gammadelta T cell stimulation EC50

SMILES | IC50 (Dictyostelium discoideum; [4]) | EC50 (Vγ2Vδ2 T cells [1]; [10]) | also measured
CC([n+]1ccccc1)C(O)(P(=O)([O-])O)P(=O)(O)O (single isomer, unassigned) [Compound 591] | 38 µM |  | IC50 (human FPPS; [5]): 29 µM
Cc1ccc[n+](CC(O)(P(=O)([O-])O)P(=O)(O)O)c1 (stereo not drawn) [Compound 297] | 2.8 µM |  | IC50 (Dictyostelium discoideum; [6]): 1.5 µM; IC50 (fetal mouse metatarsals): 0.22 µM; EC50 (Vγ2Vδ2 T cells [1]; [7]): 4.6 µM; EC50 (Vγ2Vδ2 T cells [1]; [8]): 4.9 µM; (5) Toxicity IC50 [2]: 5.3 µg/mL; Ki (L. major FPPS; [9]): 0.038 µM
O=P([O-])(O)C(O)(C[n+]1cccc(-c2ccc(O)cc2)c1)P(=O)(O)O (stereo not drawn) [Compound 359] | 2.9 µM | 24 µM | IC50 (Dictyostelium discoideum; [6]): 2.9 µM; EC50 (Vγ2Vδ2 T cells [1]; [7]): 24 µM; Ki (L. major FPPS; [9]): 0.075 µM
O=P([O-])(O)C(O)(C[n+]1cccc(-c2cccc(-c3ccccc3)c2)c1)P(=O)(O)O (stereo not drawn) [Compound 364] |  | > 1000 µM | EC50 (Vγ2Vδ2 T cells [1]; [7]): > 1000 µM; IC50 (human FPPS; [5]): 37 µM
CCCCc1ccc[n+](CC(O)(P(=O)([O-])O)P(=O)(O)O)c1 (stereo not drawn) [Compound 445] | 3 µM | 5.2 µM | IC50 (Dictyostelium discoideum; [6]): 2.9 µM; EC50 (Vγ2Vδ2 T cells [1]; [7]): 5.2 µM; EC50 (Vγ2Vδ2 T cells [1]; [8]): 2.5 µM; Ki (L. major FPPS; [9]): 0.02 µM
COc1ccc[n+](CC(O)(P(=O)([O-])O)P(=O)(O)O)c1 (stereo not drawn) [Compound 446] | 6 µM |  | IC50 (Dictyostelium discoideum; [6]): 6 µM; IC50 (fetal mouse metatarsals): 0.37 µM; EC50 (Vγ2Vδ2 T cells [1]; [7]): 4.6 µM; Ki (L. major FPPS; [9]): 0.03 µM
CN(C)c1cc[n+](CC(O)(P(=O)([O-])O)P(=O)(O)O)cc1 (stereo not drawn) [Compound 451] | 31 µM |  | (3) gammadelta T cell stimulation EC50 (Vγ2Vδ2 T cells [1]; Table 4): inactive; IC50 (human FPPS; [5]): 280 µM
O=P([O-])(O)C(O)(C[n+]1cccc(F)c1)P(=O)(O)O (stereo not drawn) [Compound 461] |  |  | IC50 (Dictyostelium discoideum; [11]): 3.7 µM; potency in bone resorption (fetal mouse metatarsals): very potent; IC50 (fetal mouse metatarsals; Mus musculus): 0.075 µM; EC50 (Vγ2Vδ2 T cells [1]; [12]): 2.7 µM; EC50 (Vγ2Vδ2 T cells [1]; [13]): 2.7 µM; Ki (L. major FPPS; Table 5, read-out: (7) L. major FPPS Ki): 0.05 µM
O=P([O-])(O)C(C[n+]1cccc(F)c1)P(=O)(O)O (stereo not drawn) [Compound 477] | 2.7 µM |  | EC50 (Vγ2Vδ2 T cells [1]; [8]): 1.8 µM; IC50 (human FPPS; [5]): 1.4 µM
O=P([O-])(O)C(C[n+]1ccc(Cc2ccccc2)cc1)P(=O)(O)O (stereo not drawn) [Compound 481] | 3.5 µM |  | EC50 (Vγ2Vδ2 T cells [1]; [8]): 83.4 µM
O=P([O-])(O)C(C[n+]1cccc(Br)c1)P(=O)(O)O (stereo not drawn) [Compound 483] |  |  | IC50 (Dictyostelium discoideum; [11]): 2.5 µM; EC50 (Vγ2Vδ2 T cells [1]; [13]): 2.9 µM
O=P([O-])(O)C(O)(C[n+]1cccc(Br)c1)P(=O)(O)O (stereo not drawn) [Compound 484] |  |  | IC50 (Dictyostelium discoideum; [11]): 3.5 µM; EC50 (Vγ2Vδ2 T cells [1]; [13]): 4.6 µM; IC50 (human FPPS): 2.5 µM
O=P([O-])(O)C(C[n+]1ccc(C(F)(F)F)cc1)P(=O)(O)O (stereo not drawn) [Compound 485] | 58 µM | 370 µM | 
O=P([O-])(O)C(C[n+]1cccc(S(=O)(=O)N2CCCC2)c1)P(=O)(O)O (stereo not drawn) [Compound 502] | 100 µM |  | (3) gammadelta T cell stimulation EC50 (Vγ2Vδ2 T cells [1]; Table 4): inactive
O=P([O-])(O)C(C[n+]1cccc(C(F)(F)F)c1)P(=O)(O)O (stereo not drawn) [Compound 511] | 4.1 µM | 14 µM | IC50 (human FPPS; [5]): 2.5 µM
O=P([O-])(O)C(O)(C[n+]1ccc(C(F)(F)F)cc1)P(=O)(O)O (stereo not drawn) [Compound 513] | 1500 µM | 550 µM | 
O=P([O-])(O)C(O)(C[n+]1cccc(C(F)(F)F)c1)P(=O)(O)O (stereo not drawn) [Compound 520] |  |  | IC50 (Dictyostelium discoideum; [11]): 6.3 µM; EC50 (Vγ2Vδ2 T cells [1]; [12]): 14 µM
O=P([O-])(O)C(C[n+]1ccccc1F)P(=O)(O)O (stereo not drawn) [Compound 521] | 570 µM | 790 µM | 
O=P([O-])(O)C(C[n+]1cc(F)cc(F)c1)P(=O)(O)O (stereo not drawn) [Compound 523] | 4.6 µM | 11 µM | 
O=P([O-])(O)C(O)(C[n+]1cccc(Cl)c1)P(=O)(O)O (stereo not drawn) [Compound 524] |  |  | IC50 (Dictyostelium discoideum; [11]): 2.4 µM; EC50 (Vγ2Vδ2 T cells [1]; [12]): 10 µM
O=Cc1ccc[n+](CC(P(=O)([O-])O)P(=O)(O)O)c1 (stereo not drawn) [Compound 525] | 8.4 µM | 11 µM | 

SMILES | IC50 (Dictyostelium discoideum; [4]) | EC50 (Vγ2Vδ2 T cells [1]; [10]) | also measured
O=P([O-])(O)C(C[n+]1cccc(Cl)c1)P(=O)(O)O (stereo not drawn) [Compound 526] | 2.1 µM | 8.6 µM | IC50 (human FPPS; [5]): 1.2 µM
O=C(c1ccccc1)c1ccc[n+](CC(P(=O)([O-])O)P(=O)(O)O)c1 (stereo not drawn) [Compound 530] | 190 µM | 6500 µM | 
O=P([O-])(O)C(C[n+]1ccc(-n2nnc3ccccc32)cc1)P(=O)(O)O (stereo not drawn) [Compound 531] | 20 µM |  | (3) gammadelta T cell stimulation EC50 (Vγ2Vδ2 T cells [1]; Table 4): inactive
O=Cc1cccc(-c2ccc[n+](CC(P(=O)([O-])O)P(=O)(O)O)c2)c1 (stereo not drawn) [Compound 532] | 4.1 µM | 41 µM | 
O=P([O-])(O)C(C[n+]1cccc(I)c1)P(=O)(O)O (stereo not drawn) [Compound 542] | 1.7 µM | 12 µM | IC50 (human FPPS; [5]): 1.2 µM
CP(=O)([O-])C(C[n+]1cccc(-c2ccccc2)c1)P(C)(=O)O (stereo not drawn) [Compound 556] |  | 2300 µM | (1) D. discoideum IC50 (Dictyostelium discoideum; Table 4): inactive
CCCOc1cccc(-c2ccc[n+](CC(P(=O)([O-])O)P(=O)(O)O)c2)c1 (stereo not drawn) [Compound 577] | 4.1 µM | 21 µM | 
COc1cccc(-c2ccc[n+](CC(P(=O)([O-])O)P(=O)(O)O)c2)c1 (stereo not drawn) [Compound 578] | 4 µM | 20 µM | 
CCCCOc1cccc(-c2ccc[n+](CC(P(=O)([O-])O)P(=O)(O)O)c2)c1 (stereo not drawn) [Compound 579] | 6 µM | 20 µM | 
O=P([O-])(O)C(O)(C[n+]1cccc(I)c1)P(=O)(O)O (stereo not drawn) [Compound 582] | 3.5 µM |  | IC50 (human FPPS; [5]): 1.6 µM
CCCCOc1ccc(-c2ccc[n+](CC(P(=O)([O-])O)P(=O)(O)O)c2)cc1 (stereo not drawn) [Compound 586] | 6 µM | 90 µM | 
CCOc1cccc(-c2ccc[n+](CC(P(=O)([O-])O)P(=O)(O)O)c2)c1 (stereo not drawn) [Compound 588] | 3.3 µM | 120 µM | IC50 (human FPPS; [5]): 11 µM
O=P([O-])(O)C(O)(C[n+]1cccc(O)c1)P(=O)(O)O (stereo not drawn) [Compound 595] | 49 µM | 210 µM | IC50 (human FPPS; [5]): 2.7 µM
CCCCC#Cc1ccc[n+](CC(P(=O)([O-])O)P(=O)(O)O)c1 (stereo not drawn) [Compound 597] |  | 58 µM | IC50 (human FPPS; [5]): 1.9 µM
CCCCCCc1ccc[n+](CC(P(=O)([O-])O)P(=O)(O)O)c1 (stereo not drawn) [Compound 598] | 1.7 µM | 35 µM | 
CC(C)=CCc1ccc[n+](CC(P(=O)([O-])O)P(=O)(O)O)c1 (stereo not drawn) [Compound 599] | 1.7 µM | 69 µM | 
CCCCOc1ccc(-c2ccc[n+](CC(O)(P(=O)([O-])O)P(=O)(O)O)c2)cc1 (stereo not drawn) [Compound 600] | 11 µM | 290 µM | 
CC(C)=CCCC(C)=CCc1ccc[n+](CC(P(=O)([O-])O)P(=O)(O)O)c1 (stereo not drawn) [Compound 601] | 2.4 µM | 220 µM | 
CC(C)C#Cc1ccc[n+](CC(P(=O)([O-])O)P(=O)(O)O)c1 (stereo not drawn) [Compound 602] | 2.04 µM | 18 µM | 
NCCCC(O)(P(=O)(O)O)P(=O)(O)O [alendronate] |  |  | EC50 (Vγ2Vδ2 T cells [3]): 52 µM; inhibition of pyrophosphatases (pyrophosphatase enzymes): did not appear necessarily to inhibit; parasite cell growth inhibition (parasite cell growth): did inhibit
O=P(O)(O)C(O)(Cc1cccnc1)P(=O)(O)O [risedronate] |  |  | EC50 (Vγ2Vδ2 T cells [3]): 6.2 µM; inhibition of pyrophosphatases (pyrophosphatase enzymes): did not appear necessarily to inhibit; parasite cell growth inhibition (parasite cell growth): did inhibit
